Test results as given in ChEMBL document CHEMBL5465560, “Selectivity Literature for EUbOPEN Chemogenomic Library” (2024).

Assays:
[1] = target: Serine/threonine-protein kinase PLK1 (Homo sapiens, UniProt P53350); assay: Selectivity interaction (ActivX KiNativ screen (kinase selectivity in THP-1 cell lysates)) EUB0000639a PLK1; assay type: subcellular; details: lysate, at 0.04 µM
[2] = target: T1, Serine/threonine-protein kinase Nek9 (Homo sapiens) (UniProt Q8TD19); assay: Selectivity interaction (ActivX KiNativ screen (kinase selectivity in THP-1 cell lysates)) EUB0000639a NEK9; assay type: subcellular; details: lysate, at 0.01 µM
T1 sequence (whole entry): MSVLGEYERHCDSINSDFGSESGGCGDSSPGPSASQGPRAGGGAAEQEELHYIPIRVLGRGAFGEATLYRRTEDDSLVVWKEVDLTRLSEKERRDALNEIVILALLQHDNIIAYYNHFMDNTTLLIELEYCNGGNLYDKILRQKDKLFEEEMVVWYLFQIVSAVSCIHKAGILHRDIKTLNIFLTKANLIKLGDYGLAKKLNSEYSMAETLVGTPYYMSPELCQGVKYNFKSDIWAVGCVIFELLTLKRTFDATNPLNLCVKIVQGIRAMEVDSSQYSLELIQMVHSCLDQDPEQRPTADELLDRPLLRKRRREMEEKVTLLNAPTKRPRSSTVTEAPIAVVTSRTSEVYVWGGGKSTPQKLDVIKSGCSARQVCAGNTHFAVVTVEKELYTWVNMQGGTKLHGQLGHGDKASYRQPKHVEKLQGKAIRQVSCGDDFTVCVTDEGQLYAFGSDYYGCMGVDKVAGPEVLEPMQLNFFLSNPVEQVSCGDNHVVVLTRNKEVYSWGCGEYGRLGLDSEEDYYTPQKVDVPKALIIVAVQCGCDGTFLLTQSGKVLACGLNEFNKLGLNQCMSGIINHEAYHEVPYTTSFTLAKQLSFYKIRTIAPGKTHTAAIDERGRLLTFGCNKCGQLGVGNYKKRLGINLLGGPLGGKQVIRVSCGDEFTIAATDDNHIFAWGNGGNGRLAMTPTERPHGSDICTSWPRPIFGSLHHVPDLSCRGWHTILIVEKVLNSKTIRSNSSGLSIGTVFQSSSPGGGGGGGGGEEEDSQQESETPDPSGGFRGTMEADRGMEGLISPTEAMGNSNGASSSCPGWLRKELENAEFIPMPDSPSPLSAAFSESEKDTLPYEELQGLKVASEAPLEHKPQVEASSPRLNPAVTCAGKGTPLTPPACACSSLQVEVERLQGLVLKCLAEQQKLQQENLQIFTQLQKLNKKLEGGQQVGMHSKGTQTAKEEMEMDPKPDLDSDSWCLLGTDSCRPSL

[3] = target: Tyrosine-protein kinase HCK (Homo sapiens) (UniProt P08631); assay: Selectivity interaction (ActivX KiNativ screen (kinase selectivity in THP-1 cell lysates)) EUB0000639a HCK; assay type: subcellular; details: lysate, at 1 µM
Tyrosine-protein kinase HCK (Homo sapiens), sequence (P08631 2-526 limits assumed): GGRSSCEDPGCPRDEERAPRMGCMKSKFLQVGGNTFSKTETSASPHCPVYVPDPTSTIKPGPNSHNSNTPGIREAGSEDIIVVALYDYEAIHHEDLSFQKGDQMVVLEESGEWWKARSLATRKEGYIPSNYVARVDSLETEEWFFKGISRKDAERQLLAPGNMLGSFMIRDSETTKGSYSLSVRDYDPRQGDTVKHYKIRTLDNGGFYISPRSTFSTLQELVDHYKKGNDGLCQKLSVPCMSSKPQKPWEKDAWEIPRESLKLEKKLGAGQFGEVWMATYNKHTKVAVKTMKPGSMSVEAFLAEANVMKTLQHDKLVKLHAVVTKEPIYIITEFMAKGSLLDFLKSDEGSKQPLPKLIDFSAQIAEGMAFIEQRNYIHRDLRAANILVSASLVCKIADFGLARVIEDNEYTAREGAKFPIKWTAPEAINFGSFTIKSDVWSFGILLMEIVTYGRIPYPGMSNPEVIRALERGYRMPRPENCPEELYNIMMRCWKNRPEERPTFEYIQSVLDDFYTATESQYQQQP

[4] = target: Mitogen-activated protein kinase kinase kinase 1 (Homo sapiens, UniProt Q13233); assay: Selectivity interaction (ActivX KiNativ screen (kinase selectivity in THP-1 cell lysates)) EUB0000639a MAP3K1; assay type: subcellular; details: lysate
Mitogen-activated protein kinase kinase kinase 1, sequence (Q13233 whole entry): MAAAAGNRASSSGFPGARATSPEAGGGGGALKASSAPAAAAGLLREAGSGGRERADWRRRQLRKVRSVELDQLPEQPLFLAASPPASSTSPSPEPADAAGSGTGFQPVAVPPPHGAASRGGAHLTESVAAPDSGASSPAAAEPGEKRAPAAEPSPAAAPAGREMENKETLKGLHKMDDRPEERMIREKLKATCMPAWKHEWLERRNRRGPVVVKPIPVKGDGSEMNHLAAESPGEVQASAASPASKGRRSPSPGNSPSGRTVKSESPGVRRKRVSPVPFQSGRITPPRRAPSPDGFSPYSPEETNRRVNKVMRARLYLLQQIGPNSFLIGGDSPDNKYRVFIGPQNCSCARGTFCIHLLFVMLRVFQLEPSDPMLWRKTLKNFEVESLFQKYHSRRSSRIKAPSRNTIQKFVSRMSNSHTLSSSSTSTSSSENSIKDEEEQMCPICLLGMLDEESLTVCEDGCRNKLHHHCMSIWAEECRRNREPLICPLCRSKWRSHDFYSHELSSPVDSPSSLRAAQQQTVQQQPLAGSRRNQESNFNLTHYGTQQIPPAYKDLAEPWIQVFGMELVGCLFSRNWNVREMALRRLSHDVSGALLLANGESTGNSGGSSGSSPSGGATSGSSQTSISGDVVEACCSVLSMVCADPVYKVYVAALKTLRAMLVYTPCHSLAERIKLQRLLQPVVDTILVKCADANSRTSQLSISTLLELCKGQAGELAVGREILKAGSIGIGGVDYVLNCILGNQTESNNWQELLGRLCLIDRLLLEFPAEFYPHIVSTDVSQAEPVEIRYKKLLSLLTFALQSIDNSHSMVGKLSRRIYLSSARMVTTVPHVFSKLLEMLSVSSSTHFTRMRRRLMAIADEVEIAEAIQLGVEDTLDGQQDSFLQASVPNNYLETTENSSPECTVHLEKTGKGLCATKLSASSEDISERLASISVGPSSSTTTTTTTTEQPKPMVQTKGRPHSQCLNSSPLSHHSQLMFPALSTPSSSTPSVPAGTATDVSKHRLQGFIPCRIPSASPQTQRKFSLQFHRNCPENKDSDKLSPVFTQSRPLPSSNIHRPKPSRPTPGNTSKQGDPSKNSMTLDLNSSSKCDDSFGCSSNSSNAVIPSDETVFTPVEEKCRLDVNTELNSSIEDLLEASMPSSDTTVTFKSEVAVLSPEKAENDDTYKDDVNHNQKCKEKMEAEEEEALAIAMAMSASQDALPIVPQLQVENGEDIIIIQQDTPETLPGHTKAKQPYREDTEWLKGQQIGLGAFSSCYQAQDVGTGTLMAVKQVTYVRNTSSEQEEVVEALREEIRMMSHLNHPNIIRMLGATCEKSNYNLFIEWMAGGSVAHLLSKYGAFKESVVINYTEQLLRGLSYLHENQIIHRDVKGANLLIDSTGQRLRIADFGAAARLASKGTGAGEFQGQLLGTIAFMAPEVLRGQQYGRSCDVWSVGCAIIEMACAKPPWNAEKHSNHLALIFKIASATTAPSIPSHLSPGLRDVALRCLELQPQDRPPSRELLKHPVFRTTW

[5] = target: T2, Serine/threonine-protein kinase Nek2 (Homo sapiens) (UniProt P51955); assay: Selectivity interaction (KinomeScan (DiscoverX)) EUB0000695a NEK2; details: at 100 nM
T2 sequence (whole entry): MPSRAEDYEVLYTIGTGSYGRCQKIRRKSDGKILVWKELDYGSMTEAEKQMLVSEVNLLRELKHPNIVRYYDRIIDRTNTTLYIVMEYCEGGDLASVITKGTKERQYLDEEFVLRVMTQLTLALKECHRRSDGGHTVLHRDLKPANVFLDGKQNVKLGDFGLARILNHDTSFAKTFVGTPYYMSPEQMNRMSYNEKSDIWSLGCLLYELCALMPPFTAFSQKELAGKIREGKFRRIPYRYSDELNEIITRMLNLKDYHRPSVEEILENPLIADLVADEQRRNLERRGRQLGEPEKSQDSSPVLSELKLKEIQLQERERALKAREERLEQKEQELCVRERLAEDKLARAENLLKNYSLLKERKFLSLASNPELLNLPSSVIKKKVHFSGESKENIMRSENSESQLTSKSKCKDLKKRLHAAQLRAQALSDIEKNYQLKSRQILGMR

[6] = target: T3, Serine/threonine-protein kinase BRSK1 (Homo sapiens) (UniProt Q8TDC3); details: at 10 µM
T3 sequence (whole entry): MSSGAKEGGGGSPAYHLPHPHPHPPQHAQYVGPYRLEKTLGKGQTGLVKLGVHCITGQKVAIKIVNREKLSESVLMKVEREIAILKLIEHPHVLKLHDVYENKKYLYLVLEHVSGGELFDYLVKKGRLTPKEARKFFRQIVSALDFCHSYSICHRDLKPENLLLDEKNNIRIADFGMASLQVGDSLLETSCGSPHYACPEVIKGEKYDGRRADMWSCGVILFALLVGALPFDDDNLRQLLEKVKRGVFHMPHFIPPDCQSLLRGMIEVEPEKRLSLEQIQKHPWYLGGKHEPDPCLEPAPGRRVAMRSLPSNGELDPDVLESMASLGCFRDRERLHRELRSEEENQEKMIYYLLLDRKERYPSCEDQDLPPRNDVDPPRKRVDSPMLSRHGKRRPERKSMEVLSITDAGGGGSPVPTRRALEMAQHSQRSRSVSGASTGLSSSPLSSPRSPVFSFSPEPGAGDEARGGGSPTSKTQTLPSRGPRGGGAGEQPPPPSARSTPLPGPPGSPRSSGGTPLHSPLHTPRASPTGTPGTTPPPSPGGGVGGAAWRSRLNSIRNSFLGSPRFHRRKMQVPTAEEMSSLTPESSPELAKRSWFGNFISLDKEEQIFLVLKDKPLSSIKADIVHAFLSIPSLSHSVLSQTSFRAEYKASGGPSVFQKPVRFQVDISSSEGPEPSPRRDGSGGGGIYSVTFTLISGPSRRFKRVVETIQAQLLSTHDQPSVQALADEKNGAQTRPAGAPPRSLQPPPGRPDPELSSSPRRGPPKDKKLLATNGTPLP

[7] = target: Fibroblast growth factor receptor 3 (Homo sapiens, UniProt P22607); assay: (§1) Selectivity interaction (KinomeScan (DiscoverX)) EUB0001049a FGFR3; details: at 1 µM
Fibroblast growth factor receptor 3, sequence (P22607 23-806 limits assumed): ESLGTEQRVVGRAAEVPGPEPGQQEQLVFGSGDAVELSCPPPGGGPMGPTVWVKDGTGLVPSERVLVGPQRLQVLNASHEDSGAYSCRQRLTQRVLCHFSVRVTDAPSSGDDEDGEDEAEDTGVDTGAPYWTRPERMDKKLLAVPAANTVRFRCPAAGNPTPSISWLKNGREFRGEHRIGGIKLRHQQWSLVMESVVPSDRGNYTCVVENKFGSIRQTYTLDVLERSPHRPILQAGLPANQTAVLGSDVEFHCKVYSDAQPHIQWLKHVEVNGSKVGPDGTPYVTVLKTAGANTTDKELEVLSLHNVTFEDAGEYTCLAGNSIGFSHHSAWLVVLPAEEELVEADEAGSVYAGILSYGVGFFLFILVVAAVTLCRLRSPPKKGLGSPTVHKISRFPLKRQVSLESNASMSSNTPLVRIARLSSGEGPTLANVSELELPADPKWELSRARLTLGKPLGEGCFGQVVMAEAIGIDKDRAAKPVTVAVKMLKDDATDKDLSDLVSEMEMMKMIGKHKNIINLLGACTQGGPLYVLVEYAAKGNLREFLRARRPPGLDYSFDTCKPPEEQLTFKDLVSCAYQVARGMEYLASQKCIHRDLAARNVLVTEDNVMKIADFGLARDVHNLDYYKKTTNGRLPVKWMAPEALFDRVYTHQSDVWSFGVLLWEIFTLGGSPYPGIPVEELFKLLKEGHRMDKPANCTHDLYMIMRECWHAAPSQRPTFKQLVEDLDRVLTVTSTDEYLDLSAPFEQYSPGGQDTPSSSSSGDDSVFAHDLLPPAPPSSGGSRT

[8] = system: Fibroblast growth factor receptor 3 (Homo sapiens), P22607 [G697C]; assay: as §1; details: at 1 µM
Fibroblast growth factor receptor 3 (Homo sapiens), P22607 [G697C], sequence (P22607 whole entry G697C): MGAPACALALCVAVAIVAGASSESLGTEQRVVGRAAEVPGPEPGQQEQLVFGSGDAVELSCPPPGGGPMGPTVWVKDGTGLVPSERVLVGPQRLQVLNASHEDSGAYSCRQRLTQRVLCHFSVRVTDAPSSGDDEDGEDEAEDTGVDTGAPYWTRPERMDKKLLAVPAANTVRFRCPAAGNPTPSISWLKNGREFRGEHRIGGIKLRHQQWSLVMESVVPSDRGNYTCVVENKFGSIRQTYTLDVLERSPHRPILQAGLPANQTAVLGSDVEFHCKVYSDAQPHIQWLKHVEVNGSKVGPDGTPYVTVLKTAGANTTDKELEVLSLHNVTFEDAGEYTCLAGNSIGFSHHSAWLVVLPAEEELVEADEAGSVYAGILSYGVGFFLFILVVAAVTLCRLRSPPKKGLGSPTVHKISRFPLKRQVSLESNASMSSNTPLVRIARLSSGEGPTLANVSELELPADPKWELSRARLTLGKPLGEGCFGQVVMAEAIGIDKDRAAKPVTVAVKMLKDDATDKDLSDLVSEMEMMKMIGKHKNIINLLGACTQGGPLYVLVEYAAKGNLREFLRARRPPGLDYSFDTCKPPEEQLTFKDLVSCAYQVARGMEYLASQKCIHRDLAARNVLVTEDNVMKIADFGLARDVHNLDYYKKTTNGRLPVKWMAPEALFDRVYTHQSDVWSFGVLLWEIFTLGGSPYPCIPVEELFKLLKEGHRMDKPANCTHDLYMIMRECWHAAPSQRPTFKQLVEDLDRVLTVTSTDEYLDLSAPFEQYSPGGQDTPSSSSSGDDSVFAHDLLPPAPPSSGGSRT

[9] = target: Tyrosine-protein kinase CSK (Homo sapiens) (UniProt P41240); assay: Selectivity interaction (KinomeScan (DiscoverX)) EUB0000655a CSK; details: at 10 µM
Tyrosine-protein kinase CSK (Homo sapiens), sequence (P41240 2-450 limits assumed): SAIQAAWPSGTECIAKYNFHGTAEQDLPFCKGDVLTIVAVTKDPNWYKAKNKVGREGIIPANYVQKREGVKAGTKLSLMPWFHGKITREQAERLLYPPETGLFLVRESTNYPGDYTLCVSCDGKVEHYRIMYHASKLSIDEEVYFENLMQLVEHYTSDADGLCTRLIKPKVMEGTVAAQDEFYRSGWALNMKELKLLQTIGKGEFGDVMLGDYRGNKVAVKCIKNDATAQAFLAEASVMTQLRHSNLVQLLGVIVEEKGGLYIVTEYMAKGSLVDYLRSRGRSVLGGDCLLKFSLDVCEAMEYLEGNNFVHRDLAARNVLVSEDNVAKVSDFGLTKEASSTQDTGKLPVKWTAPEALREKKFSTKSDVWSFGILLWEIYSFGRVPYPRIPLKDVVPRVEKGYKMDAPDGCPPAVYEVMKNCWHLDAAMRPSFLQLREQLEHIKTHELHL

[10] = target: Serine/threonine-protein kinase pim-2 (Homo sapiens, UniProt Q9P1W9); details: at 10 µM
Serine/threonine-protein kinase pim-2, sequence (Q9P1W9 whole entry, looked up): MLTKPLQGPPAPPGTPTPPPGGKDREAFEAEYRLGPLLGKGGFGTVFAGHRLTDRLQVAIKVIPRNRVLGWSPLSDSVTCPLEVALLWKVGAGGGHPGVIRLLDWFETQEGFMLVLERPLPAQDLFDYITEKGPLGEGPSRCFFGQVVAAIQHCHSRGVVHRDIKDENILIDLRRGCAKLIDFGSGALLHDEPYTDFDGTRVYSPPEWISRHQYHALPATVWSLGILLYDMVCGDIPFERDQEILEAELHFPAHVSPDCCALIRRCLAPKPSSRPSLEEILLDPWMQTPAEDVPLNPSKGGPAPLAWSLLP

[11] = target: Calcium/calmodulin-dependent protein kinase type II subunit delta (Homo sapiens) (UniProt Q13557); assay: Selectivity interaction (ActivX KiNativ screen (ex vivo kinase selectivity in human PBMCs)) EUB0001619a CAMK2D; assay type: cell-based; details: PBMC, at 1 µM
Calcium/calmodulin-dependent protein kinase type II subunit delta (Homo sapiens), sequence (Q13557 whole entry): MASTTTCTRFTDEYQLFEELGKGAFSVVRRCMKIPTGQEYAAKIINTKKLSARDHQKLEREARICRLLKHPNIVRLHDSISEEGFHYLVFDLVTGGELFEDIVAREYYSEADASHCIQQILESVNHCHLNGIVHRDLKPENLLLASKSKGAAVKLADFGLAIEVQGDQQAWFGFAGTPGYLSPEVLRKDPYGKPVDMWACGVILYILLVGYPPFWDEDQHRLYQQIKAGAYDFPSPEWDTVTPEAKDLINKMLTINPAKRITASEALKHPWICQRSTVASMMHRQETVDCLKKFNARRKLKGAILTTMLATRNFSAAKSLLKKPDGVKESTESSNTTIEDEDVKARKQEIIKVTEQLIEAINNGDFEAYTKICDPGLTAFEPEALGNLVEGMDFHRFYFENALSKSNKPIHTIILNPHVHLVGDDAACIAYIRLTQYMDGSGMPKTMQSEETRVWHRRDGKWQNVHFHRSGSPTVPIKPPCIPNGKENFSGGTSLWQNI

CC[C@@H]1[C@H](F)C(=O)N[C@@H]1COc1nccc2cc(C(N)=O)c(OC)cc12 [ZIMLOVISERTIB]
% of inhibition [1]: 3.7% | % of inhibition [2]: 1.1% | % of inhibition [3]: -16.5% | % of inhibition ([4]; at 0.01 µM): 9.7% | % of inhibition ([4]; at 0.04 µM): -2.5% | % of inhibition ([4]; at 0.2 µM): -19.5% | % of inhibition ([4]; at 1 µM): -13.4% | % of inhibition ([4]; at 5 µM): 3.7%

Cc1cc(F)c(C(=O)Nc2cccc(-c3nncn3C(C)C)n2)cc1-n1cnc(C2CC2)c1
% of control [5]: 100%

COCC(=O)NC/C=C/c1ccc2ncnc(Nc3ccc(Oc4ccc(C)nc4)c(C)c3)c2c1 [CP-724714]
% of control [6]: 100%

COc1cc(Nc2nc(C)cc(-c3cnn4nc(OC)ccc34)n2)cc(C(F)(F)F)c1
% of control [7]: 96% | % of control [8]: 96%

CN(C)CCOc1ccc(-c2nc(-c3ccncc3)c(-c3ccc4c(c3)CC/C4=N\O)[nH]2)cc1
% of control [9]: 97%

Cc1cc([C@@H](C)Nc2ccccc2C(=O)O)c2nc(N3CCOCC3)cc(=O)n2c1 [AZD-6482]
% of control [10]: 70%

N#Cc1cccc(-c2c[nH]c3ncnc(N4CCOCC4)c23)c1
% of inhibition [11]: 4%
